Data taken from patent publication US10744179B2, “Method for treatment of inflammatory skin disorders with inhibitors of IL-36 proteolytic processing” (THE PROVOST, FELLOWS, FOUNDATION SCHOLARS, & THE OTHER …, priority 2014, dated 2020).
No end group written: not given here. *: point of attachment. CH2Cl = ClC*

Legend:
[1] = tested on: IL-36α activation by activated neutrophil degranulates; assay: IL-36α activation by PMA-activated neutrophil degranulates, HeLa IL-36R bioassay (cytokine ELISA); type: cell-based, human; conditions: FIG. 5; IL-36α pre-incubated 2 h at 37° with degranulates ± PMSF (1 mM) or Cathepsin G inhibitor 1 (10 μM); HeLa IL36R, cytokine ELISA after 24 h
[2] = tested on: IL-36α activation by psoriatic skin eluates; assay: IL-36α activation by psoriatic skin eluates, HeLa IL-36R bioassay (IL-8 ELISA); type: cell-based, human; conditions: FIG. 40c, IL-36α 500 pM pre-incubated 2 h at 37° with eluates ± cathepsin G inhibitor 1 (10 μM)
Description: (§1) Fixomull (2 cm×2 cm) adhesive tape strips were applied to a healthy or psoriatic skin, under firm pressure for 10 seconds. […] Sample eluates were stored at −80° C. Enzymatic assays and bioassays were setup using control and psoriatic eluates as described above.

[3] = tested on: IL-36β activation by psoriatic skin eluates; assay: IL-36β activation by psoriatic skin eluates, HeLa IL-36R bioassay (IL-8 ELISA); type: cell-based, human; conditions: FIG. 40c, IL-36β 500 pM pre-incubated 2 h at 37° with eluates ± cathepsin G inhibitor 1 (10 μM)
Description: as §1

[4] = tested on: IL-36β activation by activated neutrophil degranulates; assay: IL-36β activation by PMA-activated neutrophil degranulates, HeLa IL-36R bioassay (cytokine ELISA); conditions: HeLa IL36R; for inhibition of the activation of IL-36β by activated neutrophil degranulates: FIG. 5, IL-36β pre-incubated 2 h at 37° with degranulates ± PMSF (1 mM) or Cathepsin G inhibitor 1 (10 μM), cytokine ELISA after 24 h; for inhibition of IL-36β activation by neutrophil degranulates (peptide panel): FIG. 6, 29, 30, degranulates pre-incubated 30 min on ice with peptide titration (20-0.625 μM), then IL36β 2 h at 37°, IL-6 ELISA after 24 h
Description: FIG. 29 are graphs showing Neutrophils degranulates pre-incubated for 30 min on ice in the presence or absence of a titration of peptide (20, 10, 5, 2.5, 1.25, 0.625 μM) followed by addition of IL36β for 2 h at 37°. HeLa^IL36R were stimulated for 24 h. IL-6 cytokine concentrations in culture supernatants were determined by ELISA. Note: Elast I-IV serves as negative controls for IL-36β assay.
Primary neutrophils were purified from donor human blood using the plasma-Percoll gradient method. Purity of cell preparations (>90%) was determined by Hematoxylin and Eosin staining of cytospins. To prepare degranulates, neutrophils (10^7 per treatment) were stimulated in the presence or absence of 50 nM PMA in HBSS/0.25% BSA for 1-3 h at 37° C. in a humidified atmosphere with 5% CO2. Supernatants were harvested and clarified by centrifugation. Degranulate aliquots were stored at −80°.
Reactions (40-100 μl final volume) were carried out in protease reaction buffer (50 mM Hepes, pH 7.4/75 mM NaCl/0.1% CHAPS) for 2 h at 37°.
Cytokines and chemokines were measured from cell culture supernatants using specific ELISA kits obtained from R&D systems (human IL-6, IL-8, CXCL1, MCP-1, IL-17C). Each assay was repeated a minimum of three times and all cytokine assays were carried out using triplicate samples from each culture.

Molecule | inhibition of the activation of IL-36α by activated neutrophil degranulates [1] | attenuation of IL-36α activation by psoriatic skin eluates [2] | attenuation of IL-36β activation by psoriatic skin eluates [3] | inhibition of the activation of IL-36β by activated neutrophil degranulates [4] | inhibition of IL-36β activation by neutrophil degranulates (peptide panel) [4]
CN(C(=O)c1cc2ccccc2cc1C(=O)C(c1cccc2ccccc12)P(=O)(O)O)C1CCN(C(=O)c2ccccc2)CC1 (stereo not drawn) [Cathepsin G Inhibitor I] | robustly inhibited | attenuated | attenuated | robustly inhibited | 
O=S(=O)(F)Cc1ccccc1 [PMSF, phenylmethanesulfonylfluoride] | robustly inhibited |  |  | robustly inhibited | 
Ala-Phe-Leu-Phe-CMK (AFLF; not fully specified; C-terminal chloromethyl ketone; N-terminal Z; printed: Ala-Phe-Leu-Phe-) [AFLF-CMK] |  |  |  |  | most potent inhibitors
Glu-Pro-Phe-CMK (Glu-Pro-Phe-CH2Cl) [EPF-CMK] |  |  |  |  | most potent inhibitors
FLF-CMK: Cathepsin G-inhibitory peptide Phe-Leu-Phe with chloromethyl ketone (CMK) at the C-terminus (Phe-Leu-Phe-CH2Cl) |  |  |  |  | most potent inhibitors
